Experimental data as given in patent US20110293658A1, “USE OF INKT OR TLR AGONISTS FOR PROTECTING AGAINST OR TREATING A DISEASE SUCH AS ACUTE INFECTION OR CANCER” (LUDWIG INSTITUTE FOR CANCER RESEARCH LTD., priority 2008, published 2011).

Experiments:
[1] = test system: CD11b+ cells from IAV infected individuals; type: cell-based, human; settings: L-NMMA and NOHA added together to alloreactive PBL; data not shown
[2] = test system: human GM-CSF treated MDSC; assay: Mixed lymphocyte reaction with healthy donors' GM-CSF treated MDSC; type: cell-based; settings: for T cell proliferation in MLR with TLR-L treated MDSC: LPS 10 μg/ml, R848 5 μg/ml, Poly I:C 10 μg/ml, 24 h co-culture with added human iNKT cells, DC:MDSC 1:1
[3] = test system: lung derived MDSC (CD11b+ Gr-1+ cells) from PR8 infected mice; type: cell-based, mouse
[4] = test system: BM derived MDSC; assay: OT-I proliferation assay with BM derived MDSC; type: cell-based, mouse; settings: for MDSC suppressive activity on CFSE labelled OT-I proliferation: MDSC incubated 48 h with TLR agonist, in the absence of iNKT cells
[5] = test system: CD11bCD15 positive cells; assay: Melan-A priming experiments with CD11bCD15 positive cells from melanoma patients; type: cell-based, human; settings: CD11bCD15 positive cells pulsed with alphaGalCer 100 ng or Threitolceramide 200 ng
Experimental: CD11bCD15 positive cells were pulsed with either alphaGalCer (100 ng) or Threitolceramide (200 ng) for 2 hours and then incubated with autologous iNKT cells overnight before adding autologous DC pulsed with Melan-A26-35 peptide and autologous CD11bCD15 cell depleted total leukocytes.
Experiments in FIG. 29 were carried out using the same conditions as shown in the right column of FIG. 28 (i.e. in the presence of iNKT cells and alphaGalCer pulsed CD11bCD15 positive cells) in the presence of either blocking anti CD1d (middle column) or blocking anti CD40 (right column) antibodies.
In order to assess whether secretion of IL-10 is contributing to the suppressive activity of CD11bCD15 positive cells, expansion of Melan-A26-35 specific T cell responses as assessed in the presence or absence of blocking anti 11-10 receptor antibodies. In the left hand panel of FIG. 31, expansion of Melan-A26-35 specific T cells was assessed using total leukocytes from which CD11b-CD15+ cells were removed (2.33%). Addition of CD11bCD15 positive cells reduced the frequency of Melan-A26-35 specific T cells (0.83%) (central panel).
Purification of CD11b/CD15+ cells. Since CD15 CD11b positive cells have granulocyte density, it is important to purify them without using density gradients, such as Ficol. Red blood cells are lysed from whole blood, using red lysis cell buffer and anti CD11b/CD15 specific antibodies are added to the leukocytes for FACS guided cell sorting.
Melan-A priming experiments. DCs were generated by culturing monocytes for 4 days in RPMI/10% FCS supplemented with 50 ng/ml GM-CSF (Pepro-tech) and 1,000 U/ml IL-4 (Salio, M., et al. 2007. Proc. Natl. Acad. Sci. U.S.A. 104:20490-20495). […] After 2 weeks, cells were stained with HLA-A2 tetramers loaded with melan-A26-35 peptide and anti CD8.
Harnessing iNKT cells. The protocol to purify Cdl lbCd15 cells and differentiate DC is similar to the protocol described earlier. Cdl lbCd15 cells were pulsed with either alphaGalCer (100 ng) or with threitolceramide (200 ng) and then incubated with iNKT cells for 12 hours. Cells were then washed pulsed with the melan-A26-35 peptide and incubated with total leukocytes. After 2 weeks in culture, cells were stained with HLA-A2 melan-A tetramers and anti-CD8 antibodies.

[6] = test system: EG7 cells (EL4 tumor cell line transfected with ovalbumin cDNA); set-up: species or system C57 BL/6 mice; settings: mouse, in vivo, iv
[7] = test system: iNKT cells; assay: IFN-γ and IL-4 release from iNKT cells incubated with treated MDSC; type: cell-based, mouse; settings: WT MDSC treated with TLR agonist, iNKT cells incubated 48 h
Experimental: (B) IFN-γ and IL-4 release from iNKT cells incubated for 48 h with CpG or Poly I:C treated MDSC, in the presence or absence of anti CD1d blocking antibody. Data represent the average of 3 replicates ±S.D and are representative of 3 separate experiments.
(A) iNKT cells derived from WT mice fail to produce IFN-γ when incubated with TLR-L matured MDSC derived from hexβ^−/− mice. Analysis of IFN-γ secretion by iNKT cells, derived from WT mice, co-incubated with TLR-L treated MDSC derived from either hexβ^−/− or iGb3S^−/− mice. To assess the role of CD1d molecules expressed on the surface of MDSC, TLR-L treated MDSC were also incubated with blocking […].
Isolation and culture of mouse MDSC. […]
Isolation of mouse iNKT cells. […] The % of iNKT cells was measured by CD1d/α-GalCer tetramer staining and ranged from ˜14% to ˜60%. […]
ELISA: 1) Cytokines. […] The amount of IL-12p40, IFN-γ and IL4 was measured using an ELISA kit (eBioscience). […] Sera from PR8 infected mice were collected 6 days post infection and antibody titers were determined by coating 96-well maxisorb NUNC plates with 5 ng/ml of PR8 virus overnight at 4° C. […] Color reactions were developed with 3,3′,5-5′-Tetramethylbenzidine (TMB) (Sigma-Aldrich) and the absorbance was measured at 490 nm.

Compound: CNC(=N)NCCC[C@H](N)C(=O)O [L-NMMA, N^G-monomethyl-L-arginine]
- T cell proliferation in the absence of CD11b+ cells [1]: did not affect T cell proliferation
- MLR suppressive activity of healthy donors GM-CSF treated MDSC ([2]; NOHA and L-NMMA added together): can be blocked
- PBL proliferation in MLR in the absence of MDSC ([2]; NOHA and L-NMMA added together, no MDSC, data not shown): does not affect PBL proliferation
- OT-I proliferation in the absence of MDSC ([3]; L-NMMA and NOHA added together to OT-I splenocytes, no MDSC, data not shown): did not affect OT-I proliferation
- suppressive activity of MDSC from PR8 infected mice on CFSE labelled OT-I proliferation ([3]; […], L-NMMA and NOHA used together (500 μM)): is reduced

Compound: CCCCN1C[C@H](O)[C@@H](O)[C@@H](O)[C@H]1CO [NB-DGJ, N-butyldeoxygalactonojirimycin]
- ability of iNKT cells to relieve the suppressive activity of MDSC (CFSE labelled OT-I proliferation) ([4]; CpG and poly I:C treated MDSC, increasing concentrations of NB-DGJ, incubated with iNKT cells 24 h): reduced the ability of iNKT cells to relieve the suppressive activity of MDSC
- OT-I proliferation in absence of MDSC ([4]; NB-DGJ added to OT-I splenocytes, no MDSC, data not shown): did not affect OT-I proliferation

Compound: CCOCc1nc2c(N)nc3ccccc3c2n1CC(C)(C)O [R848]
- MDSC suppressive activity on CFSE labelled OT-I proliferation [4]: partially relieved
- T cell proliferation in MLR with TLR-L treated MDSC [2]: rescues T cell proliferation

Compound: CCCCCCCCCCCCCCCCCCCCCCCCCC(=O)N[C@@H](COC[C@H](O)[C@@H](O)CO)[C@H](O)[C@H](O)CCCCCCCCCCCCCC [threitolceramide]
- frequency of Melan-A26-35 specific T cells ([5]; in the absence of added iNKT cells, unpulsed 0.34%): 0.29%
- frequency of Melan-A26-35 specific T cells ([5]; with addition of autologous iNKT cells): 2.87%
- frequency of MDSCs (CD11b+Gr1+ positive cells) [6]: lower frequency
- frequency of Ova specific T cell responses (H-2Kb tetramer staining) [6]: higher frequency
- tumor size / tumor regression [6]: Tumour regression

Compound: poly I:C
- MDSC suppressive activity on CFSE labelled OT-I proliferation [4]: partially relieved
- activation of iNKT cells by treated MDSC (IFNγ and IL-4 secretion) [7]: capable of activating iNKT cells
- T cell proliferation in MLR with TLR-L treated MDSC [2]: rescues T cell proliferation
